# Measured values taken from patent US11559522B2, “Methods for enhancing liver regeneration” (The Trustees of the University of Pennsylvania, priority 2016, dated 2023).
# Entries after “also recorded” stand apart in the source; their conditions may differ.
# Assays:
# wild-type C57BL/6J mice = assay: 2/3 partial hepatectomy (PHx) liver regeneration model, NR in the drinking water; type: in vivo, mouse
# Excerpt: (§1) Animals, housing and drug treatment: Mice overexpressing Nampt in hepatocytes were obtained by crossing animals carrying an exogenous copy of the Nampt cDNA separated from the CAGGS promoter by a foxed stop cassette that were backcrossed to the C57BL/6J background (as described previously^7), with mice carrying Albumin-Cre (JAX strain B6.Cg-Tg(Alb-cre)21Mgn/J, stock number 003574). Littermates lacking Albumin Cre were used as controls. For studies on the adult onset of Nampt overexpression, 8-9 week old male Nampt^fl/fl and Nampt^wt/wt mice were injected with adeno-associated virus in the retroorbital plexus expressing either Cre recombinase (AAV-Cre) or enhanced green fluorescent protein (AAV-Gfp) under the control of thyroxine-binding globulin (Tbg) promoter (AAV-Cre). Nampt^fl/fl mice injected with AAV-Gfp and Namp^wt/wt injected with AAV-Cre served as controls. For inducible deletion of Nampt, mice originally created by Oberdan Leo at Université de Liège and backcrossed to the C57/BL6 background were employed and generously provided by Shin-Ichiro Imai at Washington University. As above, 8-9 week old male mice bearing two floxed alleles were injected retroorbitally with adeno-associated virus expressing either Cre recombinase (AAV-Cre) or enhanced green fluorescent protein (AAV-Gfp) under the control of thyroxine-binding globulin (Tbg) promoter. Fasting blood glucose was measured and partial hepatectomies were performed at >14 days after AAV infection in both the adult onset overexpression and liver-specific knock out cohorts. Animals were housed in groups of 4-5 mice/cage in pathogen-free barrier facility in a 12 h light-dark cycle with free access to food and water. For experiments containing only wild type animals, male C57BL/6J mice were ordered directly from Jackson Labs. For nicotinamide riboside (NR) (Chromadex Inc.) supplementation experiments, NR was dissolved in the drinking water at 3.0 mg/ml in light-protected bottles and was changed every 3 days. For fasting and re-feeding experiments, animals were fasted for 16 h with access to water ad libitum in cages containing Alpha-dri bedding. All animal work was performed in accordance with the U.S. Department of Health and Human Services Guide for the Care and Use of Laboratory Animals and with the approval of the University of Pennsylvania Institutional Animal Care and Use Committee.
# (§2) Partial hepatectomy: 10-14 week old male transgenic mice underwent partial hepatectomy (PHx) according to the protocol of Mitchell and Willenbring between 8 AM and noon. Briefly, after isofluorane anesthesia, a ventral midline incision was made. Then the median and left lateral lobes, comprising 70% of the liver, were resected by pedicle ligation. For EdU (5-ethynyl-2′-deoxyuridine) labeling (Molecular probes), mice were injected intraperitoneally with the labeling reagent at a dose of 16 mg/kg, 5 h before sacrifice. Animals were sacrificed at 36 h or 48 h after PHx, as indicated. The resected and regenerating livers were snap frozen in liquid nitrogen, fixed in 4% paraformaldehyde, embedded in OCT medium (Tissue-TEK O.C.T compound, Sakura), or rapidly frozen in pre-chilled metal clamps in liquid nitrogen for NAD and ATP assays. All surgical procedures involving mice were approved by the Institutional Animal Care and Use Committee protocols of the University of Pennsylvania.
# (§3) Histology, Immunohistochemistry, and Immunofluoresence: Mitotic figures were counted in Hematoxylin and eosin stained slides. Paraffin embedded liver sections of 5 μm thickness were deparaffinized in Xylene followed by rehydration through a graded ethanol series were stained with Gill 3 hematoxylin (Thermo Scientific) and eosin (Sigma). Mitotically active areas were first screened under lower magnification. For quantification, total mitotic counts in 10 high power fields (40×) in the most mitotically active areas were considered. […]
# [1] = system: hepatocyte-specific Nampt deficient mice; assay: Partial hepatectomy in hepatocyte-specific Nampt deficient mice (AAV-Cre) and AAV-Gfp littermate controls, with NR; type: in vivo, mouse; conditions: for Liver regeneration (EdU positive hepatocytes, liver to body weight ratio): first 48 hours after PHx, NR ~500 mg/kg/day
# Excerpt: as §1, §2, §3
# Sirt1 knockout mice = assay: Partial hepatectomy in Sirt1 knockout mice and littermate controls, with NR; type: in vivo, mouse
# Protocol: Partial hepatectomy: 10-14 week old male transgenic mice underwent partial hepatectomy (PHx) according to the protocol of Mitchell and Willenbring between 8 AM and noon. Briefly, after isofluorane anesthesia, a ventral midline incision was made. Then the median and left lateral lobes, comprising 70% of the liver, were resected by pedicle ligation. For EdU (5-ethynyl-2′-deoxyuridine) labeling (Molecular probes), mice were injected intraperitoneally with the labeling reagent at a dose of 16 mg/kg, 5 h before sacrifice. Animals were sacrificed at 36 h or 48 h after PHx, as indicated. The resected and regenerating livers were snap frozen in liquid nitrogen, fixed in 4% paraformaldehyde, embedded in OCT medium (Tissue-TEK O.C.T compound, Sakura), or rapidly frozen in pre-chilled metal clamps in liquid nitrogen for NAD and ATP assays. All surgical procedures involving mice were approved by the Institutional Animal Care and Use Committee protocols of the University of Pennsylvania. Histology, Immunohistochemistry, and Immunofluoresence: Mitotic figures were counted in Hematoxylin and eosin stained slides. Paraffin embedded liver sections of 5 μm thickness were deparaffinized in Xylene followed by rehydration through a graded ethanol series were stained with Gill 3 hematoxylin (Thermo Scientific) and eosin (Sigma). Mitotically active areas were first screened under lower magnification. For quantification, total mitotic counts in 10 high power fields (40×) in the most mitotically active areas were considered. Representative photomicrographs were taken at 400× magnification using a light microscope coupled with a digital image acquisition system. For immunofluorescent detection of Nampt expression in paraffin sections, antigens were retrieved in R-buffer (Electron Microscopy Sciences Ct #62706-10) followed by quenching and blocking in Cas-Block (Invitrogen 00-8120) for 20 min. Slides were then incubated overnight at 4° C. in humidified chamber with primary rabbit polyclonal anti-NAMPT antibody (Bethyl Laboratories, dilution 1:1000). Goat anti-rabbit IgG (Alexa Fluor 488) was used as secondary antibody at dilution of 1:600 and slides were counter-stained with DAPI (Vector laboratories). For quantification, cells were examined and imaged using a Zeiss Axioplan 2 imaging system under a 20× objective taking both the central and portal venous areas. Studies were performed to determine the ability of NR to improve liver regeneration in the context of Sirt1 deletion, which impairs this process. Sirt1 knockouts and littermate controls were treated with NR (500 mgs/Kg/day) for 2 weeks prior to partial hepatectomy (PHx). […] In another assay, liver regeneration during the first 36 hour post PHx was compromised in Sirt1 knockout mice and restored by NR treatment. […]
# hepatocyte = conditions: cited from earlier work
# [2] = NR ~500 mg/kg, 48 hours post PHx
# [3] = Sirt1 deficient mice, NR 500 mgs/Kg/day for 2 weeks prior to PHx
smiles,measurement,setting,value
"NC(=O)c1ccc[n+]([C@@H]2O[C@H](CO)[C@@H](O)[C@H]2O)c1 [NR, nicotinamide riboside]","Increase of liver NAD content, pre hepatectomy","wild-type C57BL/6J mice; NR 3 mg/mL in drinking water (~500 mg/kg) for 14 days, pre PHx, vs control mice",~35%
same,"Increase of liver NAD content, post hepatectomy","wild-type C57BL/6J mice; NR 3 mg/mL in drinking water (~500 mg/kg) from 14 days before PHx, 48 hours post PHx, vs control mice",~58%
same,Liver ATP levels,"wild-type C57BL/6J mice; NR treated mice, pre or post hepatectomy, regenerating livers",enhanced
same,"Fatty changes (hepatic steatosis, micro and macro vesicular lipid droplets, hepatic triglyceride accumulation)",wild-type C57BL/6J mice; [2],almost completely absent; also recorded: not evident
same,Hepatocyte proliferation (incorporation of EdU into DNA),wild-type C57BL/6J mice; [2],greatly enhanced
same,Liver mass (liver to body weight ratio) after PHx,wild-type C57BL/6J mice; [2],significant improvement
same,Macroscopic appearance of regenerating livers,"wild-type C57BL/6J mice; NR ~500 mg/kg, 48 hours post PHx, control livers pale, mottled",more uniformly colored
same,"Increase in mitotic activity (mitotic figures, H&E stained sections)","wild-type C57BL/6J mice; NR ~500 mg/kg, 48 hours post PHx, vs control",48%
same,Hepatic steatosis at 36 hours post-PHx,"wild-type C57BL/6J mice; NR-treated mice, 36 hours post-PHx",Some steatosis was visible
same,Mitotic index,"[1]; Nampt KO mice, 48 hours after PHx",largely restored
same,"Liver regeneration (EdU positive hepatocytes, liver to body weight ratio)",[1]; Nampt KO mice,restored
same,"Liver regeneration (EdU positive hepatocytes, liver to body weight ratio)","[1]; Nampt KO mice, listed as nicotinamide riboside",completely rescued
same,Reduction of hepatic triglycerides with NR treatment,"[1]; Nampt fl/fl AAV-Cre mice, 48 hours after PHx",~35%
same,Petechial hemorrhage / pale regenerated livers (macroscopic),"[1]; Nampt fl/fl AAV-Cre mice, NR ~500 mg/kg/day 2 weeks prior to PHx, 48 hours",prevented
same,Hepatic fatty changes in NAMPT deficient regenerating livers (histology),"[1]; Nampt fl/fl AAV-Cre, 48 hours after PHx",nearly normalized
same,Reduction of hepatic triglycerides with NR treatment,"[1]; Nampt fl/fl AAV-Gfp mice, 48 hours after PHx",75%
same,Liver NAD content,"[1]; both genotypes (AAV-Gfp and AAV-Cre), before and after PHx",effectively increased
same,Hepatic lipid accumulation in regenerating wild type livers (histology),"[1]; wild type (AAV-Gfp control) livers, 48 hours after PHx",abolished
same,Acute hepatic steatosis phenotype (H&E sections),Sirt1 knockout mice; [3],partially rescued
same,Hepatic fatty changes,Sirt1 knockout mice; [3],attenuated
same,Liver regeneration during the first 36 hour post PHx,Sirt1 knockout mice; Sirt1 knockout mice,restored
same,Size of the regenerated livers compared to untreated livers,"Sirt1 knockout mice; both wild type and Sirt1 knockout mice, 36 hour post PHx",increase
Oc1ccc(/C=C/c2cc(O)cc(O)c2)cc1 [resveratrol],Hepatocyte replication,hepatocyte,slow
same,Hepatocyte survival in injury models,hepatocyte,improve
